In brackets after ≈: the same amount, converted by molar mass. Read-outs that look alike come from different tables or passages of the source. Where a SMILES comes first, the peptide text is derived from it. [ ]: non-standard residue; d: D form.
Assays:
Enterococcus faecalis = test: microbe, parasite or virus in culture; assay type: cell-based; details: for MIC50 fold change: Enterococcus faecalis (2 isolates)
Enterococcus faecium = test: microbe, parasite or virus in culture; assay type: cell-based; details: for MIC50 fold change: Enterococcus faecium (3 isolates)
[1] = tested on: Acinetobacter baumannii-calcoaceticus complex; test: microbe, parasite or virus in culture; assay type: cell-based; details: for MIC50 fold change: Acinetobacter spp. (5 isolates)
Escherichia coli = test: microbe, parasite or virus in culture; assay type: cell-based; details: for MIC50 fold change: Escherichia coli (5 isolates)
[2] = tested on: E. cloacae species complex; test: microbe, parasite or virus in culture; assay type: cell-based, Enterobacter cloacae; details: for MIC: Enterobacter cloacae, read-out: MIC; for MIC50 fold change: Enterobacter spp. (5 isolates)
Pseudomonas aeruginosa = test: microbe, parasite or virus in culture; assay type: cell-based; details: for MIC50 fold change: Pseudomonas aeruginosa (5 isolates)
Streptococcus pneumoniae = test: microbe, parasite or virus in culture; assay type: cell-based
Staphylococcus aureus = test: microbe, parasite or virus in culture; assay type: cell-based
Klebsiella pneumoniae [3] = test: microbe, parasite or virus in culture
Klebsiella pneumoniae [4] = details: for MIC50 fold change: Klebsiella pneumoniae (5 isolates)

## C[C@H]1COc2c(N3CCN(C)CC3)c(F)cc3c(=O)c(C(=O)O)cn1c23 [Levofloxacin, reference compound]
Enterococcus faecalis; ATCC29212, Enterococcus faecalis ATCC 29212, QC, read-out: MIC
  MIC: 0.5 µg/mL (≈ 1.38 µM)
Enterococcus faecalis; Enterococcus faecalis, Collection No. 1204777, VRE, read-out: MIC
  MIC: 32 µg/mL (≈ 88.6 µM)
Enterococcus faecalis; Enterococcus faecalis, Collection No. 1211589, VRE
  MIC: 32 µg/mL (≈ 88.6 µM)
Enterococcus faecium; Enterococcus faecium, Collection No. 1196024, VRE, read-out: MIC
  MIC: > 64 µg/mL
Enterococcus faecium; Enterococcus faecium, Collection No. 1208412, VRE
  MIC: >64 µg/mL
Enterococcus faecium; Enterococcus faecium, Collection No. 1222807, VSE, read-out: MIC
  MIC: 8 µg/mL (≈ 22.1 µM)
[1]; Acinetobacter, ABC species complex, Collection No. 1204424, non-MDR, read-out: MIC
  MIC: 0.12 µg/mL (≈ 0.332 µM)
[1]; Acinetobacter, ABC species complex, Collection No. 1208060, non-MDR, read-out: MIC
  MIC: 0.06 µg/mL (≈ 0.166 µM)
[1]; Acinetobacter, ABC species complex, Collection No. 1215088, MDR, read-out: MIC
  MIC: 32 µg/mL (≈ 88.6 µM)
[1]; Acinetobacter, ABC species complex, Collection No. 1215098, MDR, read-out: MIC
  MIC: 16 µg/mL (≈ 44.3 µM)
[1]; Acinetobacter, ABC species complex, Collection No. 1216520, non-MDR, read-out: MIC
  MIC: 0.25 µg/mL (≈ 0.692 µM)
Escherichia coli; Escherichia coli, ATCC25922, Escherichia coli ATCC 25922, QC, read-out: MIC
  MIC: 0.015 µg/mL (≈ 0.0415 µM)
Escherichia coli; Escherichia coli, ATCCBAA2452, Escherichia coli ATCC BAA-2452, NDM-1, read-out: MIC
  MIC: 0.03 µg/mL (≈ 0.083 µM)
Escherichia coli; Escherichia coli, Collection No. 1191008, MDR, ESBL, read-out: MIC
  MIC: 32 µg/mL (≈ 88.6 µM)
Escherichia coli; Escherichia coli, Collection No. 1231795, MDR, ESBL, read-out: MIC
  MIC: 8 µg/mL (≈ 22.1 µM)
Escherichia coli; Escherichia coli, Collection No. 1232428, MDR (COL-R), ESBL, read-out: MIC
  MIC: 8 µg/mL (≈ 22.1 µM)
Escherichia coli; Escherichia coli, Collection No. 1248389, ESBL, read-out: MIC
  MIC: 8 µg/mL (≈ 22.1 µM)
[2]; B. cloacae species complex, Collection No. 1204419, non-MDR
  MIC: 0.03 µg/mL (≈ 0.083 µM)
[2]; Collection No. 1230117, non-MDR
  MIC: 0.015 µg/mL (≈ 0.0415 µM)
[2]; E. cloacae species complex, Collection No. 1197959, non-MDR
  MIC: 0.25 µg/mL (≈ 0.692 µM)
[2]; E. cloacae species complex, Collection No. 1230601, non-MDR
  MIC: 0.03 µg/mL (≈ 0.083 µM)
[2]; E. cloacae species complex, Collection No. 1232701, MDR
  MIC: 8 µg/mL (≈ 22.1 µM)
Pseudomonas aeruginosa; Pseudomonas aeruginosa ATCC 27853, QC
  MIC: 0.5 µg/mL (≈ 1.38 µM)
Pseudomonas aeruginosa; Pseudomonas aeruginosa, ATCC27853, Pseudomonas aeruginosa ATCC 27853, QC, read-out: MIC
  MIC: 1 µg/mL (≈ 2.77 µM)
Pseudomonas aeruginosa; Pseudomonas aeruginosa, Collection No. 1190985, non-MDR, read-out: MIC
  MIC: 0.25 µg/mL (≈ 0.692 µM)
Pseudomonas aeruginosa; Pseudomonas aeruginosa, Collection No. 1202638, MDR, read-out: MIC
  MIC: 16 µg/mL (≈ 44.3 µM)
Pseudomonas aeruginosa; Pseudomonas aeruginosa, Collection No. 1210081, non-MDR, read-out: MIC
  MIC: 0.5 µg/mL (≈ 1.38 µM)
Pseudomonas aeruginosa; Pseudomonas aeruginosa, Collection No. 1242554, non-MDR, read-out: MIC
  MIC: 0.5 µg/mL (≈ 1.38 µM)
Pseudomonas aeruginosa; Pseudomonas aeruginosa, Collection No. 1263496, MDR, read-out: MIC
  MIC: 0.25 µg/mL (≈ 0.692 µM)
Streptococcus pneumoniae; ATCC49619, Streptococcus pneumoniae ATCC 49619, QC, read-out: MIC
  MIC: 0.5 µg/mL (≈ 1.38 µM)
Streptococcus pneumoniae; Streptococcus pneumoniae, Collection No. 1200385, PEN-S, read-out: MIC
  MIC: 1 µg/mL (≈ 2.77 µM)
Streptococcus pneumoniae; Streptococcus pneumoniae, Collection No. 1219456, PEN-R
  MIC: 1 µg/mL (≈ 2.77 µM)
Streptococcus pneumoniae; Streptococcus pneumoniae, Collection No. 1219876, PEN-R
  MIC: 1 µg/mL (≈ 2.77 µM)
Streptococcus pneumoniae; Streptococcus pneumoniae, Collection No. 1223661, PEN-R
  MIC: 1 µg/mL (≈ 2.77 µM)
Streptococcus pneumoniae; Streptococcus pneumoniae, Collection No. 1227224, PEN-S
  MIC: 1 µg/mL (≈ 2.77 µM)
Staphylococcus aureus; Staphylococcus aureus, MRSA / USA300, Staphylococcus aureus, Collection No. 1124691, MRSA (USA300)/MDR, read-out: MIC
  MIC: 8 µg/mL (≈ 22.1 µM)
Staphylococcus aureus; Staphylococcus aureus, MRSA, Staphylococcus aureus, Collection No. 1189667, MRSA/MDR, read-out: MIC
  MIC: > 64 µg/mL
Staphylococcus aureus; Staphylococcus aureus, MRSA, Staphylococcus aureus, Collection No. 1189809, MRSA/MDR, read-out: MIC
  MIC: 32 µg/mL (≈ 88.6 µM)
Staphylococcus aureus; Staphylococcus aureus, MRSA, Staphylococcus aureus, Collection No. 1190388, MRSA, read-out: MIC
  MIC: 16 µg/mL (≈ 44.3 µM)
Staphylococcus aureus; Staphylococcus aureus, MRSA, Staphylococcus aureus, Collection No. 1221979, MRSA, read-out: MIC
  MIC: 1 µg/mL (≈ 2.77 µM)
Klebsiella pneumoniae [3]; ATCC700603, Klebsiella pneumoniae ATCC 700603, ESBL
  MIC: 1 µg/mL (≈ 2.77 µM)
Klebsiella pneumoniae [3]; BAA1705, Klebsiella pneumoniae ATCC BAA 1705, KPC
  MIC: 64 µg/mL (≈ 177 µM)
Klebsiella pneumoniae [3]; Collection No. 1230887, non-MDR
  MIC: 0.06 µg/mL (≈ 0.166 µM)
Klebsiella pneumoniae [3]; Collection No. 1236064, non-MDR
  MIC: 0.03 µg/mL (≈ 0.083 µM)

## CC[C@@H](C)[C@@H](NC(=O)[C@@H](CS)NC(=O)[C@@H](CCSC)NC(=O)[C@@H](CS)NC(=O)[C@@H](CCCNC(=N)N)NC(=O)[C@H](NC(=O)[C@H](NC(=O)[C@H](N)CCCNC(=N)N)[C@H](C)O)C(C)C)C(=O)O [P182 A, RTVRCMCI] (H-[dR][dT][dV][dR][dC][dM][dC][dI]-OH; N-terminus and C-terminus assumed)
Enterococcus faecalis
  MIC: 8 µg/mL (≈ 8.15 µM)
Enterococcus faecium
  MIC: 8 µg/mL (≈ 8.15 µM)
[1]; -calcoaceticus complex
  MIC: 16 µg/mL (≈ 16.3 µM)
Escherichia coli
  MIC: 16 µg/mL (≈ 16.3 µM)
Streptococcus pneumoniae
  MIC: 32 µg/mL (≈ 32.6 µM)

## CC[C@@H](C)[C@@H](NC(=O)[C@@H](CS)NC(=O)[C@@H](CCSC)NC(=O)[C@@H](CS)NC(=O)[C@@H](CCCNC(=N)N)NC(=O)[C@H](NC(=O)[C@H](NC(=O)[C@H](N)CCCNC(=N)N)[C@H](C)O)C(C)C)C(=O)O [P182 F, RTVRCMCI] (H-[dR][dT][dV][dR][dC][dM][dC][dI]-OH; N-terminus and C-terminus assumed)
Enterococcus faecalis
  MIC: 8 µg/mL (≈ 8.15 µM)
Enterococcus faecium
  MIC: 8 µg/mL (≈ 8.15 µM)
[1]; -calcoaceticus complex
  MIC: 16 µg/mL (≈ 16.3 µM)
Streptococcus pneumoniae
  MIC: 32 µg/mL (≈ 32.6 µM)

## CC[C@@H](C)[C@@H](NC(=O)[C@@H](CS)NC(=O)[C@@H](CCCNC(=N)N)NC(=O)[C@@H](CS)NC(=O)[C@@H](CCCNC(=N)N)NC(=O)[C@H](NC(=O)[C@@H](Cc1ccc(O)cc1)NC(=O)[C@H](N)CCCNC(=N)N)C(C)C)C(=O)O [P194 A, RYVRCRCI] (H-[dR][dY][dV][dR][dC][dR][dC][dI]-OH; N-terminus and C-terminus assumed)
Enterococcus faecalis
  MIC: 4 µg/mL (≈ 3.74 µM)
  MIC50: 2 µg/mL (≈ 1.87 µM)
Enterococcus faecium
  MIC: 2 µg/mL (≈ 1.87 µM)
  MIC50: 1 µg/mL (≈ 0.936 µM)
[1]; -calcoaceticus complex
  MIC50: 4 µg/mL (≈ 3.74 µM)
Escherichia coli
  MIC50: 8 µg/mL (≈ 7.49 µM)
[2]; species complex
  MIC50: 16 µg/mL (≈ 15 µM)
Pseudomonas aeruginosa
  MIC50: 32 µg/mL (≈ 30 µM)
Streptococcus pneumoniae
  MIC50: 32 µg/mL (≈ 30 µM)
Staphylococcus aureus
  MIC: 32 µg/mL (≈ 30 µM)
  MIC50: 32 µg/mL (≈ 30 µM)
Klebsiella pneumoniae [4]
  MIC50: 4 µg/mL (≈ 3.74 µM)

## CC[C@@H](C)[C@@H](NC(=O)[C@@H](CS)NC(=O)[C@@H](CCCNC(=N)N)NC(=O)[C@@H](CS)NC(=O)[C@@H](CCCNC(=N)N)NC(=O)[C@H](NC(=O)[C@@H](Cc1ccc(O)cc1)NC(=O)[C@H](N)CCCNC(=N)N)C(C)C)C(=O)O [P194 F, RYVRCRCI] (H-[dR][dY][dV][dR][dC][dR][dC][dI]-OH; N-terminus and C-terminus assumed)
Enterococcus faecalis
  MIC: 8 µg/mL (≈ 7.49 µM)
Enterococcus faecium
  MIC: 4 µg/mL (≈ 3.74 µM)
Streptococcus pneumoniae
  MIC: 32 µg/mL (≈ 30 µM)

## ATVRCTCI [Peptide D8-R1A]
Enterococcus faecalis; relative to D8-acetate
  MIC50 fold change: 2
Enterococcus faecium; relative to D8-acetate
  MIC50 fold change: 2
[1]; relative to D8-acetate
  MIC50 fold change: 4
Escherichia coli; relative to D8-acetate
  MIC50 fold change: 4
[2]; relative to D8-acetate
  MIC50 fold change: 2
Pseudomonas aeruginosa; relative to D8-acetate
  MIC50 fold change: 2
Klebsiella pneumoniae [4]; relative to D8-acetate
  MIC50 fold change: 4

## AYVRCRCI [Peptide P194-R1A]
Enterococcus faecalis; relative to P194-acetate
  MIC50 fold change: 1
Enterococcus faecium; relative to P194-acetate
  MIC50 fold change: 2
[1]; relative to P194-acetate
  MIC50 fold change: 1
Escherichia coli; relative to P194-acetate
  MIC50 fold change: 0.5
[2]; relative to P194-acetate
  MIC50 fold change: 0.5
Pseudomonas aeruginosa; relative to P194-acetate
  MIC50 fold change: 1
Streptococcus pneumoniae; relative to P194-acetate, Streptococcus pneumoniae (5 isolates)
  MIC50 fold change: 1
Staphylococcus aureus; relative to P194-acetate, Staphylococcus aureus (5 isolates)
  MIC50 fold change: 0.5
Klebsiella pneumoniae [4]; relative to P194-acetate
  MIC50 fold change: 1

Reference: patent US20260078158A1, “COMPOSITIONS COMPRISING CXCL10-DERIVED PEPTIDES AND METHODS OF USE THEREOF” (priority 2022, published 2026)
